From ChEMBL document CHEMBL3102855, “Synthesis of long-chain fatty acid derivatives as a novel anti-Alzheimer's agent” (Bioorg Med Chem Lett, 2014)
The source made the active and inactive calls. The rule behind the calls is not given here.

System: Cortical neurone
Test: Induction of dendrite extension in rat cortical neurons assessed as inhibition of amyloid beta (25 to 35)-induced neuronal degeneration at 1 uM after 4 days by fluorescence microscopic analysis
Format: functional

SMILES: CC/C=C\CCCCCCCCC/C=C\CCCCCCCCCCCCCCCCCCCCCCCCCCCCCC(=O)O
- Activity: Active

SMILES: CCCCCCCCCC/C=C\C/C=C\CCCCCCCCCCCCCCCCCCCCCC(=O)O
- Activity: Active

SMILES: CCCCCCC/C=C\CCCC/C=C\CCCCCCCCCCCCCCCCCCCCCC(=O)O
- Activity: Active

SMILES: CC/C=C\CCCCCCCCC/C=C\CCC(=O)O
- Activity: Active

SMILES: CCCCCCCCCCCCC/C=C\CCCCCCCCCCCCCCCCCCCCCC(=O)O
- Activity: Active

SMILES: CC/C=C\CCCCCCCCC/C=C\CCCCCCCCCCCCCCCCCCCCCC(=O)O
- Activity: Active

SMILES: CCCCCCCCCCCCCCCCCCCCCCCCCCCC(=O)O
- Activity: Active

SMILES: CCCCCCCCCCCCC/C=C\CCCCCCCCCCCCCO
- Activity: Active

SMILES: CCCCC/C=C\CCCCCC/C=C\CCCCCCCCCCCCCCCCCCCCCC(=O)O
- Activity: Active

SMILES: CC/C=C\CCCCCCCCC/C=C\CCCCCCCC(=O)O
- Activity: Active

SMILES: CCCCCCCCCCCCCCCCC/C=C\CCCCCCCCCCCCCCCCCCCCCC(=O)O
- Activity: Active

SMILES: CCCCCCCCCCCCC/C=C\CCCCCCCCCCCCC(=O)O
- Activity: Active

SMILES: CC/C=C\CCCCCCCCC/C=C\CCCCCCCCCCC(=O)O
- Activity: Active

SMILES: CCCCCCCCCCCCCCCCCCCCCCCCCCCCCCCCCCCCC(=O)O
- Activity: Active

SMILES: CCCCCCCCCC/C=C\CCCCCCCCCC(=O)O
- Activity: Active

SMILES: CCCCCCCCCCCCCCCCCCCCCC(=O)O
- Activity: Active

SMILES: CCCCCCCCCCCCC/C=C\CCCCCCCCCCCCCCCCCCCCCCO
- Activity: Active
